These results are taken from US12404260B2, “Pyridine rings containing derivatives as MALT1 inhibitors” (Janssen Pharmaceutica NV, priority 2019, dated 2025).

Molecules are shown by their SMILES.

Assay [1] has as its system secretion of IL10 by OCI-LY3 ABC-DLBCL cells. Briefly: Human IL10 Mesoscale assay (OCI-LY3). It is filed as cell-based. The settings on record: 24 h incubation, IL10 in supernatant. The method, boiled down: (§1)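 OCI-LY3 cells (100,000/well) treated 24 h at 37° C with compounds, 9-point 1:2 dilutions from 15 μM to 58.6 nM (0.3% DMSO). Supernatant IL6 and IL10 quantified by Mesoscale electrochemiluminescence immunoassay; DMSO defined maximum signal, BTK inhibitor RN486 defined maximum inhibition.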

The target in assay [2] is T1, full-length MALT1 protein (Strep-MALT1(1-824)-His) (Homo sapiens, UniProt Q9UDY8).
T1 construct: full-length MALT1 protein (Strep-MALT1(1-824)-His) purified from baculovirus-infected insect cells; Strep (N); His (C); made in house; host or cells: baculovirus-infected insect cells
T1 sequence (Q9UDY8 1-824): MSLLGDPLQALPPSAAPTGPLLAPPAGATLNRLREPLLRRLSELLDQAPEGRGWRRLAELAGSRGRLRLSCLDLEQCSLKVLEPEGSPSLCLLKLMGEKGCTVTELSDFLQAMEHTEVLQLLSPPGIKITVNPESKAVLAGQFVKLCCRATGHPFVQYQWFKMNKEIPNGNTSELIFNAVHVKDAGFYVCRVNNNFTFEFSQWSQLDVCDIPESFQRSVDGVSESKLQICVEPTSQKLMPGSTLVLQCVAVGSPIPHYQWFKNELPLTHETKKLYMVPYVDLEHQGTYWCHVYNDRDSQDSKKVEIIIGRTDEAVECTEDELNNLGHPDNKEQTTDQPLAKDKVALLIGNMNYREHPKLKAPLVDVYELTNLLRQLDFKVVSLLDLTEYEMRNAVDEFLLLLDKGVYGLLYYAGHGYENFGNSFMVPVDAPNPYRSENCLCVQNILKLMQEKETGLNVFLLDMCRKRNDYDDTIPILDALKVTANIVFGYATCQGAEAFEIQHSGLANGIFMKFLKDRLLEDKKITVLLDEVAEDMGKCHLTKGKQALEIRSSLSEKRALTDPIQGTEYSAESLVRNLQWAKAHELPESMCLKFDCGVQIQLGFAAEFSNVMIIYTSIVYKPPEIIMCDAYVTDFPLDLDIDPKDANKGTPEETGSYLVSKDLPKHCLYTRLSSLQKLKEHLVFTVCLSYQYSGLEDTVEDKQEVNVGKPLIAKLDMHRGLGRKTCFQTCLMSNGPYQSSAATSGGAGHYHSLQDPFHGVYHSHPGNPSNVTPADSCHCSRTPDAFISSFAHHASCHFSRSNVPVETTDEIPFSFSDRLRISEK
The experiment in a line: MALT1 Biochemical Protease Assay. The settings on record: 10 nM FL MALT1, 200 μM Ac-LRSR-AMC, 50 min pre-incubation, 4 h at RT; read-out: MALT1_Biochemical activity (Ac-LRSR-amc) IC50. The method, boiled down:
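Full-length Strep-MALT1(1-824)-His from baculovirus-infected insect cells, 10 nM, preincubated with compound 50 min at RT; 200 μM Ac-LRSR-AMC (KM) in 50 mM Tris pH 7.5, 0.6 M citrate, 1 mM DTT, 1 mM EDTA, 0.05% BSA, 1.5% DMSO. Fluorescence 355/460 nm, 4 h minus time 0; 11-point 1:3 series 30 μM–0.5 nM, IC50 with Hill slope.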

Assay [3] deals with secretion of IL6 by OCI-LY3 ABC-DLBCL cells. The experiment in a line: Human IL6 Mesoscale assay (OCI-LY3). In kind it is cell-based. The settings on record: 24 h incubation, IL6 in supernatant. The method, boiled down:
as §1

As to `CO[C@H](C)c1c(NC(=O)Nc2ccnc(C(F)(F)F)c2)cnc(C)c1Cl` [Co. 64], the half-inhibitory concentration (IC50) was 0.19 µM in assay [1], 0.17 µM in assay [2] and 0.68 µM in assay [3].

As to `CO[C@H](C)c1c(NC(=O)Nc2cnc(C3CC3)c(C(F)(F)F)c2)cnc(C)c1Cl` [Co. 67], the IC50 came out at 1.78 µM in assay [1], 1.95 µM in assay [2] and 4.17 µM in assay [3].

As to `CO[C@@H](C)c1c(NC(=O)Nc2cnc(OC(F)F)c(Cl)c2)cnc(C)c1C#N` [Co. 70], the IC50 was found to be 0.03 µM in assay [1], 0.05 µM in assay [2] and 0.06 µM in assay [3].

Regarding `CO[C@@H](C)c1c(NC(=O)Nc2cnc(OC(F)F)c(Cl)c2)cnc(C)c1Cl` [Co. 73], the IC50 in assay [1] turned out to be 0.06 µM; in assay [2], 0.08 µM; in assay [3], 0.11 µM.

In the case of `CO[C@H](C)c1c(NC(=O)Nc2cnc(OC(F)F)c(Cl)c2)cnc(C)c1Cl` [Co. 74], the IC50 in assay [1] stood at 0.65 µM; in assay [2] it was 1.35 µM; in assay [3] it was 0.93 µM.

On to `COc1ncc(NC(=O)Nc2cnc(C)c(Cl)c2[C@H](C)OC)cc1C#N` [Co. 76], for which the concentration for half-maximal inhibition (IC50) in assay [1] amounted to 0.11 µM; in assay [2] it was 0.16 µM; in assay [3] it was 0.13 µM.

`COc1ncc(NC(=O)Nc2cnc(C)c(Cl)c2[C@@H](C)OC)cc1C#N` [Co. 77]: the IC50 was found to be 6.03 µM in assay [1], 8.32 µM in assay [2] and 7.59 µM in assay [3].

`COc1nc(-n2nccn2)c(Cl)cc1NC(=O)Nc1cnc(C)c(C#N)c1[C@@H](C)OC` [Co. 79]: the IC50 in assay [1] came to 0.06 µM; in assay [2] it was 0.02 µM; in assay [3], 0.11 µM.

As to `COc1nc(-n2nccn2)c(Cl)cc1NC(=O)Nc1cnc(C)c(C#N)c1[C@H](C)OC` [Co. 80], the IC50 in assay [1] turned out to be 0.09 µM; in assay [2], 0.05 µM; in assay [3], 0.15 µM.

For `COc1nc(-n2nccn2)c(Cl)cc1NC(=O)Nc1cnc(C)c(Cl)c1[C@@H](C)OC` [Co. 82], the results for the half-maximal inhibitory concentration (IC50) in assay [1], in assay [2] and in assay [3] were 0.09 µM, 0.05 µM and 0.12 µM, respectively.

On to `COc1nc(-n2nccn2)c(Cl)cc1NC(=O)Nc1cnc(C)c(Cl)c1[C@H](C)OC` [Co. 83], for which the results for the half-maximal inhibitory concentration (IC50) in assay [1], in assay [2] and in assay [3] were 0.18 µM, 0.35 µM and 0.5 µM, respectively.

As for `COc1nc(-n2nccn2)c(Cl)cc1NC(=O)Nc1cnc(C)c(Br)c1[C@@H](C)OC` [Co. 85], the IC50 in assay [1] was determined as 0.05 µM; in assay [2], 0.03 µM; in assay [3], 0.1 µM.

As for `CO[C@H](C)c1c(NC(=O)Nc2cc(Cl)c(-n3nccn3)nc2C)cnc(C)c1C#N` [Co. 88], the results for the IC50 in assay [1], in assay [2] and in assay [3] were 0.17 µM, 0.1 µM and 0.29 µM, respectively.

For `CO[C@@H](C)c1c(NC(=O)Nc2cc(Cl)c(-n3nccn3)nc2C)cnc(C)c1C#N` [Co. 89], the results for the IC50 in assay [1], in assay [2] and in assay [3] were 0.16 µM, 0.11 µM and 0.25 µM, respectively.

For `CO[C@H](C)c1c(NC(=O)Nc2cnc(-n3nccn3)c(C#N)c2)cnc(C)c1Br` [Co. 91], the IC50 was 0.05 µM in assay [1], 0.02 µM in assay [2] and 0.09 µM in assay [3].

Regarding `CO[C@@H](C)c1c(NC(=O)Nc2cnc(-n3nccn3)c(C#N)c2)cnc(C)c1Br` [Co. 92], the figures for the IC50 in assay [1], in assay [2] and in assay [3] were 1.51 µM, 0.69 µM and 3.02 µM, respectively.

For the molecule `COc1ncc(NC(=O)Nc2cnc(C)c(Br)c2[C@H](C)OC)cc1C#N` [Co. 97], the results for the concentration for half-maximal inhibition (IC50) in assay [1], in assay [2] and in assay [3] were 0.09 µM, 0.08 µM and 0.14 µM, respectively.

As to `CO[C@H](C)c1c(NC(=O)Nc2cnc(-n3nccn3)c(C(F)(F)F)c2)cnc(C)c1C#N` [Co. 100], the IC50 in assay [1] is 0.06 µM; in assay [2], 0.03 µM; in assay [3], 0.09 µM.

For `CO[C@@H](C)c1c(NC(=O)Nc2cnc(-n3nccn3)c(C(F)(F)F)c2)cnc(C)c1C#N` [Co. 101], the results for the 50% inhibitory concentration (IC50) in assay [1], in assay [2] and in assay [3] were 0.15 µM, 0.21 µM and 0.24 µM, respectively.

The IC50 is the concentration needed to halve the response being measured.
